# Test results published in paper PMC5552954, “Regulation of Burkholderia cenocepacia biofilm formation by RpoN and the c‐di‐GMP effector BerB” (MicrobiologyOpen, 2017).
# Tests used:
# [1] = target: T1, BerB (Burkholderia cenocepacia, UniProt B4EHY3); assay: SPR, steady-state affinity fit; format: binding; details: labelled compound; biotinylated c-di-GMP immobilised on chip, protein injected; HEPES buffer pH 7.4, 150 mmol/L NaCl, 0.05% Tween
# T1 construct: gene BCAM1342; berB in pGEX-6P-2, expressed in E. coli Rosetta (DE3) pLysS as GST fusion, eluted with glutathione
# Text: SPR, steady-state affinity fit on BerB | BerB was able to bind to the biotinylated c‐di‐GMP in a concentration‐dependent manner
# [2] = target: T2, BerA (Burkholderia cenocepacia, UniProt B4EIC5); assay: SPR, steady-state affinity fit; format: binding; details: labelled compound; biotinylated c-di-GMP immobilised on chip, protein injected; PBS buffer pH 7.4; known binder as positive control
# T2 construct: gene BCAM1349; berA in pGEX-6P-2, expressed in E. coli Rosetta (DE3) pLysS as GST fusion, eluted with glutathione
# T2 sequence (B4EIC5 entry or part of it): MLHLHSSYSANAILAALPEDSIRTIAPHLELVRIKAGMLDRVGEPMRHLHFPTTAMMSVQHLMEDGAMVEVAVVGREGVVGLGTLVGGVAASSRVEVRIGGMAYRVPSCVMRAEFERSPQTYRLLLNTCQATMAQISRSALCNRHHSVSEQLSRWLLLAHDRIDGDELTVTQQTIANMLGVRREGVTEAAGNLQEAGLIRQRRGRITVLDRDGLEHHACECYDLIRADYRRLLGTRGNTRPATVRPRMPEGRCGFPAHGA
# T1 sequence (B4EHY3 entry or part of it): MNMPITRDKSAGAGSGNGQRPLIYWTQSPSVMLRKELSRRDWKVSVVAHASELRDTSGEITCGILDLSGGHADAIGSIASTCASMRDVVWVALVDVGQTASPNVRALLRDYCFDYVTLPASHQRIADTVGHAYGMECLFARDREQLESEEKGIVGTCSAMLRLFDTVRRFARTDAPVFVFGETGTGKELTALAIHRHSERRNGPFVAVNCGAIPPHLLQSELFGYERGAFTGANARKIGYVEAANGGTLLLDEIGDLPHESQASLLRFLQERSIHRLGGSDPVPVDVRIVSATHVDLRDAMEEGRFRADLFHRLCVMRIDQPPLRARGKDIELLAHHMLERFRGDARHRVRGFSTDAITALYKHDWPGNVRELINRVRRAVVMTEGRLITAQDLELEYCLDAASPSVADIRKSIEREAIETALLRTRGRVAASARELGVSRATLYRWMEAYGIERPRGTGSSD
substance,measurement,setting,value
biotinylated c-di-GMP,Kd,[1],~3000 nM
same,Kd,[2],~3000 nM
